As a reminder, the IC50 is the concentration that gives 50% inhibition. Read a low IC50 as higher potency.

We go through 13 molecules from ChEMBL document CHEMBL1140622, “Structure based de novo design of novel glycogen synthase kinase 3 inhibitors” (Bioorg Med Chem, 2007).

The structures appear in SMILES notation.

A short description of the assay: Inhibition of GSK3.
The molecule `O=C1Nc2ccc(Br)cc2/C1=C1/Nc2ccccc2/C1=N\O` [INDIRUBIN 2] had an IC50 of 5 nM.

Regarding `CC(=O)O/N=C1/C(=C2/C(=O)Nc3cc(Cl)c(Cl)cc32)Nc2ccccc21` [INDIRUBIN 1], the IC50 stood at 4 nM. `O=C1NC(=O)C(c2cnc3cccnn23)=C1c1cn2c3c(cccc13)CN(C(=O)N1CCCCC1)CC2` [BISARYLMALEIMIDE 1] showed a half-maximal inhibitory concentration (IC50) of 0.7 nM. This IC50 lies about 5.7-fold lower than the previous one. In the case of `COc1cccc(-n2ncc3c(N/N=C/c4ccc(S(C)(=O)=O)cc4)ncnc32)c1` [PYRAZOLOPYRIMIDINE 2], the “Log IC50” value is -8.6.

As to `COc1ccc(Nc2nccc(-c3cnn4ncccc34)n2)cc1OC` [PYRAZOLOPYRIDAZINE 2], inhibition was half-maximal at 12 nM (IC50).

As for `CN(C)CCCn1cc(C2=C(c3c[nH]c4ccccc34)C(=O)NC2=O)c2ccccc21` [GF-109203], half-maximal inhibition (IC50) required 190 nM. In the case of `CN(C)CCNC(=O)c1ccc(/C=N/Nc2ncnc3c2cnn3-c2cccc3[nH]cnc23)cc1` [PYRAZOLOPYRIMIDINE 1], the “Log IC50” value is recorded as -8.8.

`COc1cccc(Nc2nccc(-c3cnn4ncccc34)n2)c1` [PYRAZOLOPYRIDAZINE 1] came in with an IC50 of 10 nM. In other words, the double-digit nanomolar range. Molecule `CN1CCN(c2cnc(NCCNc3ccc([N+](=O)[O-])c(N)n3)nc2-c2ccc(Cl)cc2Cl)C(=O)C1` registered an IC50 of 4 nM.

Regarding `O=C1NC(=O)C2=C1c1cn(c3ccccc13)CCOCCOCCOCCn1cc2c2ccccc21` [INDOLYLYLMALEIMIDE 2], the IC50 turned out to be 22 nM.

For the molecule `O=C1NC(=O)C2=C1c1cn(c3ccccc13)CCOCCOCCOCCn1cc2c2cccnc21` [INDOLYLYLMALEIMIDE 1], the IC50 was found to be 17 nM. This IC50 and that of the molecule before are within 1.5-fold of each other. Still for that read-out and setting: next, `CC(=O)NC1=NC(=O)/C(=C2\CCNC(=O)c3c2cc(Br)n3C(C)=O)N1` [HYMENIALDISINE 2]: 130 nM; `O=C1NC(=O)C(c2cncc3ccoc23)=C1c1cn2c3c(cccc13)CN(C(=O)N1CCOCC1)CC2` [BISARYLMALEIMIDE 2]: 0.8 nM.
